In brackets after ≈: the same amount, converted by molar mass.
Assays:
[1] = system: S. aureus CF35A-L; assay: MIC, microdilution in CAMHB 24 h; format: cell-based, Staphylococcus aureus; details: CF35A-L; Human (CF lungs); MRSA
[2] = system: S. aureus ATCC BAA-41; assay: MIC, microdilution in CAMHB 24 h; format: cell-based, Staphylococcus aureus; details: ATCC BAA-41; Human (HA); MRSA
[3] = system: S. aureus MA078038; assay: MIC, microdilution in CAMHB 24 h; format: cell-based, Staphylococcus aureus; details: MA078038; Human (CA); MRSA
[4] = system: S. aureus Sa220c; assay: MIC, microdilution in CAMHB 24 h; format: cell-based, Staphylococcus aureus; details: Sa220c; Human (SSTI); MRSA
[5] = system: S. aureus CF2A-L; assay: MIC, microdilution in CAMHB 24 h; format: cell-based; details: CF2A-L; Human (CF lungs)
[6] = system: S. aureus CF4B-L; assay: MIC, microdilution in CAMHB 24 h; format: cell-based, Staphylococcus aureus; details: CF4B-L; Human (CF lungs)
[7] = system: S. aureus Newman; assay: MIC, microdilution in CAMHB 24 h; format: cell-based, Staphylococcus aureus; details: Newman; Human (Osteo)
[8] = system: S. aureus CF1A-L; assay: MIC, microdilution in CAMHB 24 h; format: cell-based, Staphylococcus aureus; details: CF1A-L; Human (CF lungs)
[9] = system: S. aureus SHY97-3906; assay: MIC, microdilution in CAMHB 24 h; format: cell-based, Staphylococcus aureus; details: SHY97-3906; Cow (mastitis)
[10] = system: S. aureus 8325-4; assay: MIC, microdilution in CAMHB 24 h; format: cell-based, Staphylococcus aureus; details: 8325-4; Laboratory strain
[11] = system: S. aureus ATCC 29213; assay: MIC, microdilution in CAMHB 24 h, with or without tomatidine/compound; format: cell-based, Staphylococcus aureus; details: ATCC 29213
[12] = system: S. aureus Sa228c; assay: MIC, microdilution in CAMHB 24 h; format: cell-based, Staphylococcus aureus; details: Sa228c; Human (SSTI); MRSA
[13] = system: S. aureus MRSA COL; assay: MIC, microdilution in CAMHB 24 h; format: cell-based, Staphylococcus aureus; details: MRSA COL; Human (SSTI)
[14] = system: S. aureus CF9A-L; assay: MIC, microdilution in CAMHB 24 h; format: cell-based, Staphylococcus aureus; details: CF9A-L; Human (CF lungs); MRSA
[15] = system: S. aureus CF07-L; assay: MIC, microdilution in CAMHB 24 h; format: cell-based, Staphylococcus aureus; details: CF07-L; Human (CF lungs)
[16] = system: S. aureus Mu50; assay: MIC, microdilution in CAMHB 24 h; format: cell-based, Staphylococcus aureus; details: Mu50; Human (SSTI); MRSA, VISA
[17] = system: S. aureus CF6B-L; assay: MIC, microdilution in CAMHB 24 h; format: cell-based, Staphylococcus aureus; details: CF6B-L; Human (CF lungs)
[18] = system: S. aureus Newbould; assay: MIC, microdilution in CAMHB 24 h; format: cell-based, Staphylococcus aureus; details: Newbould; Cow (mastitis)
[19] = system: S. aureus CF8E-L; assay: MIC, microdilution in CAMHB 24 h; format: cell-based, Staphylococcus aureus; details: CF8E-L; Human (CF lungs)
[20] = system: S. aureus N315; assay: microbe, parasite or virus in culture; format: cell-based, Staphylococcus aureus; details: N315; Human (HA); MRSA
[21] = system: S. aureus ATCC 43300; assay: MIC, microdilution in CAMHB 24 h; format: cell-based, Staphylococcus aureus; details: ATCC 43300; Human (HA); MRSA
[22] = system: S. aureus CF7A-L; assay: MIC, microdilution in CAMHB 24 h; format: cell-based, Staphylococcus aureus; details: CF7A-L; Human (CF lungs); MRSA
[23] = system: S. aureus ATCC 29213; assay: MICs of control antibiotics for macromolecular biosynthesis assays; format: cell-based; details: Staphylococcus aureus, ATCC29213; ATCC 29213; data not shown; read-out: MIC

What does the source list for `CN(C)[C@@H]1C(=O)C(C(N)=O)=C(O)[C@@]2(O)C(=O)C3=C(O)c4c(O)cccc4[C@@](C)(O)[C@H]3C[C@@H]12` [Tetracycline, tetracycline]?
MIC [1]: 0.5 mg/L (≈ 1.13 µM); MIC [2]: 0.5 mg/L (≈ 1.13 µM); MIC [3]: 0.5 mg/L (≈ 1.13 µM); MIC [4]: 0.5 mg/L (≈ 1.13 µM); MIC [5]: 2 mg/L (≈ 4.5 µM); MIC [6]: 0.25 mg/L (≈ 0.563 µM); MIC [7]: 0.25 to 0.5 mg/L; MIC [8]: 0.25 mg/L (≈ 0.563 µM); MIC [9]: 0.25 to 0.5 mg/L; MIC [10]: 0.25 mg/L (≈ 0.563 µM); MIC ([11]; Human (SSTI)): 0.25 to 0.5 mg/L; MIC −TO ([11]; absence of tomatidine): 0.25 to 0.5 mg/L; MIC +TO ([11]; presence of tomatidine at 8 μg/ml): 0.25 to 0.5 mg/L; Fold (−TO/+TO) ([11]; tomatidine at 8 μg/ml): 1 fold; MIC [12]: >16 (R) μg/ml; MIC [13]: 1 to 2 mg/L; MIC [14]: 0.25 to 0.5 mg/L; MIC [15]: 0.5 mg/L (≈ 1.13 µM); MIC [16]: >16 (R) μg/ml; MIC [17]: 0.25 mg/L (≈ 0.563 µM); MIC [18]: 0.25 to 0.5 mg/L; MIC [19]: 0.25 to 0.5 mg/L; MIC [20]: 0.5 mg/L (≈ 1.13 µM); MIC [21]: 0.5 mg/L (≈ 1.13 µM); MIC [22]: 0.25 to 0.5 mg/L

Which MIC [23] does the source give for `CO[C@H]1/C=C/O[C@@]2(C)Oc3c(C)c(O)c4c(O)c(c(/C=N/N5CCN(C)CC5)c(O)c4c3C2=O)NC(=O)/C(C)=C\C=C\[C@H](C)[C@H](O)[C@@H](C)[C@@H](O)[C@@H](C)[C@H](OC(C)=O)[C@@H]1C` [rifampicin] here?
The MIC was 0.008 to 0.015 mg/L (≈ 0.00972 to 0.0182 µM).

Source: patent US9457033B2, “Steroid alkaloids and uses thereof as antimicrobial agents against electron transport-deficient microbes and as potentiators for antimicrobial agents against pathogenic bacteria” (priority 2011, dated 2016)
